From article PMC7114128 (Antiviral Research, 2009) come the findings set out here.

Series [1] can be described thus: in vitro. The conditions noted are these: human.
Series [2] deals with HIV/SARS-CoV S pseudovirus. Kind of series: organism not typed. The conditions noted are these: HepG2.
In series [3] the test system is TfR. It counts as cell-based.
The test system of series [4] is wtSARS-CoV strain PUMC01 F5. It counts as cell-based, SARS-CoV.
The test system of series [5] is ACE2. It counts as cell-based, human.
The subject of series [6] is HIV/SARS-CoV S pseudovirus.
In series [7] the test system is HepG2 cells.
For series [8], the system named is CD59. It counts as cell-based.

Like-named read-outs stand apart in the source and are kept apart here.

What is called IC50 is the concentration that inhibits the measured activity by half. A low value points to higher potency. Turning to `Oc1cc(O)c2c(c1)O[C@@]1(c3ccc(O)c(O)c3)Oc3cc(O)c4c(c3[C@@H]2[C@H]1O)O[C@H](c1ccc(O)c(O)c1)[C@H](O)[C@H]4c1c(O)cc(O)c2c1O[C@H](c1ccc(O)c(O)c1)[C@H](O)C2` [Cinnamtannin B1], in series [1], the CC50 turned out to be 0.242 ± 0.0148 mM. Besides, in series [2], the IC50 was 0.0329 ± 0.0028 mM. In series [3], the “Effect on TfR expression” value was “up-regulated”. In series [4], the “IC50 with virus pretreated (1 h) compared with drug added simultaneously (0 h)” value was “not different”. The “ACE2 expression versus untreated control (positive percentages and MFI)” value in series [5] is recorded as “no significant difference”.
Isoeugenol: the IC50 in series [6] was determined as 2 ± 0.142 mM.
Turning to `O=C/C=C/c1ccccc1` [Trans-cinnamaldehyde], the “SI (CC50/IC50)” value in series [6] was 1. The compound further registered a CC50 in series [1] of 0.2 ± 0.014 mM. This compound also displayed an IC50 in series [2] of 0.2 ± 0.016 mM.
Regarding `C=CC(C)(C)c1cc(/C=C/C(=O)c2ccc(O)cc2)c(OC)cc1O` [Licochalcone-A], in series [6], the IC50 was 0.03 ± 0.003 mM and the “SI (CC50/IC50)” value is listed as 1. In series [7], this compound had a CC50 of 0.03 ± 0.001 mM.
Consider `Oc1cc(O)c2c(c1)O[C@H](c1ccc(O)c(O)c1)[C@H](O)[C@H]2c1c(O)cc(O)c2c1O[C@H](c1ccc(O)c(O)c1)[C@@H](O)C2` [Procyanidin B1], for which the CC50 in series [1] stood at 0.656 ± 0.0367 mM. Further, half-maximal inhibition in series [2] (IC50) was put at 0.161 ± 0.0203 mM. In addition, in series [8], the “Effect on CD59 expression” value is given as “did not affect”. Further, in series [3], the “Effect on TfR expression” value was “did not affect”. For the same compound, the “IC50 with virus pretreated (1 h) compared with drug added simultaneously (0 h)” value in series [4] is given as “not different”. In addition, in series [5], the “ACE2 expression versus untreated control (positive percentages and MFI)” value is reported as “no significant difference”.
Consider `CCOC(=O)/C=C/c1ccccc1` [Ethylcinnamate], for which the “SI (CC50/IC50)” value in series [6] amounted to 2.0. This compound yielded a CC50 in series [1] of 14.1 ± 1.22 mM. The same compound yielded a half-inhibitory concentration (IC50) in series [2] of 7.1 ± 0.532 mM.
As for `Oc1cc(O)c2c(c1)O[C@H](c1ccc(O)c(O)c1)[C@H](O)[C@H]2c1c(O)cc(O)c2c1O[C@H](c1ccc(O)c(O)c1)[C@H](O)C2` [procyanidins B2, procyanidin B2], the “Effect on TfR expression” value in series [3] is given as “nor up-regulate”. For the same compound, in series [4], the “Anti-SARS-CoV activity in wtSARS-CoV infection” value (shortened to “Anti-SARS-CoV activity”) is on record as “did not inhibit”.
`O=c1cc(O)c2ccccc2o1` [4-Hydroxycoumarin]: the “SI (CC50/IC50)” value in series [6] came out at 1. Moreover, the CC50 in series [1] amounted to 10.3 ± 0.66 mM. Also, the IC50 in series [2] was 10.3 ± 0.5 mM.
In the case of `OCCc1ccccc1` [2-Phenylethanol (phenethy alcohol), 2-Phenylethanol], the CC50 in series [1] is 24.5 ± 1.53 mM. 4.1 ± 0.199 mM corresponded to half-maximal inhibition in series [2] (IC50). For the same compound, the “Anti-SARS-CoV activity” value in series [4] is recorded as “did not show any anti-SARS-CoV activities”.
As for `CC(=O)c1ccccc1O` [2′-Hydroxyacetophenone], the “SI (CC50/IC50)” value in series [6] came to 1. In series [1], this compound registered a CC50 of 1.8 ± 0.071 mM. This compound gave an IC50 in series [2] of 1.8 ± 0.102 mM.
Take `COc1ccc(C=CC(=O)O)cc1OC` [3,4-Dimethoxycinnamic acid]: the “SI (CC50/IC50)” value in series [6] is recorded as 2. For the same compound, the CC50 in series [1] was 10 ± 0.62 mM. Inhibition in series [2] was half-maximal at 5 ± 0.233 mM (IC50).
In the case of `CC(=O)OC/C=C/c1ccccc1` [Cinnamylacetate], in series [6], half-maximal inhibition (IC50) was put at 7.1 ± 0.35 mM and the “SI (CC50/IC50)” value is 1. In series [7], this compound came in with a CC50 of 7.1 ± 0.42 mM.
Turning to `Cc1ccc(C(C)C)cc1` [p-Cymene], the “SI (CC50/IC50)” value in series [6] was 1. In series [1], the CC50 turned out to be 75 ± 4.35 mM. Also, in series [2], 75 ± 5.55 mM corresponded to half-maximal inhibition (IC50).
`O=C(O)/C=C/c1ccccc1` [Trans-cinnamic acid]: in series [6], the IC50 turned out to be 3 ± 0.178 mM. The “Anti-SARS-CoV activity” value in series [4] is “did not show any anti-SARS-CoV activities”. This compound also displayed a CC50 in series [7] of 22.4 ± 1.23 mM.
`COc1cc(C=CC(=O)O)ccc1O` [4-Hydroxy-3-methoxycinnamic acid]: the “SI (CC50/IC50)” value in series [6] came to 2. The compound further returned a CC50 in series [1] of 10 ± 0.555 mM. Also, the IC50 in series [2] came out at 5 ± 0.312 mM.
In series [1], `O=C(O)C=Cc1ccccc1O` [2-Hydroxycinnamic acid] registered a CC50 of 2.5 ± 0.122 mM. This compound had an IC50 in series [2] of 0.3 ± 0.013 mM. The “Anti-SARS-CoV activity” value in series [4] is “did not show any anti-SARS-CoV activities”.
On to `O=c1ccc2ccc(O)cc2o1` [7-Hydroxycoumarin], for which, in series [6], the “SI (CC50/IC50)” value is 4.3. In addition, in series [1], the CC50 is 10.7 ± 0.56 mM. In series [2], this compound returned an IC50 of 2.5 ± 0.172 mM.
Regarding `C=CCc1ccc(OC)cc1` [4-Allylanisole], the CC50 in series [1] was 8 ± 0.563 mM. Besides, half-maximal inhibition in series [2] (IC50) required 8.4 ± 0.65 mM.
With `COc1cc(C=CC=O)ccc1O` [4-Hydroxy-3-methoxy cinnamaldehyde], the “SI (CC50/IC50)” value in series [6] turned out to be 2.3. The CC50 in series [1] is 0.7 ± 0.043 mM. In series [2], the midpoint of inhibition, the IC50, lay at 0.3 ± 0.013 mM.
